Data taken from patent US20210047441A1, “ANTHOCYANIDIN COMPLEX” (priority 2012, published 2021).

Columns and labels:
[1] = Stability tests in aqueous solution, 0.9% NaCl at 37° C. (Example 5); type: physicochemical; conditions: 0.9% NaCl solution, dark, start 1.584 mg/ml (complex), 0.0216 mg/ml (uncomplexed)
Method: In order to determine the content of delphinidin chloride in the delphinidin-containing solutions, a reverse phase HPLC process similar to that already described above was used. The following reagents were used thereby:
The delphinidin content was determined after 1, 2, 3 and 4 hours.
The determination of the delphinidin content in the samples was calculated with the aid of Agilent ChemStation software using calibration with the described external standard.

[2] = Solubility of delphinidin chloride in aqueous cyclodextrin solutions (Example 1); type: physicochemical; conditions: pure water, cyclodextrin concentration 0; stirred 20 hours at 30° C. in the dark, filtered 0.22 μm
Method: In this example, the complexing of delphinidin by various cyclodextrins and the solubility of the complex in aqueous solution are studied.
Neutral aqueous solutions comprising 10% by weight of the respective cyclodextrin were prepared.
In each case 5 ml of the aqueous cyclodextrin solutions and of pure water were introduced into glass flasks. An excess of delphinidin chloride was then added.
The suspensions were stirred for 20 hours at 30° C. in the dark. They were then filtered through a membrane filter of 0.22 μm pore size.

Oc1cc(O)c2cc(O)c(-c3cc(O)c(O)c(O)c3)[o+]c2c1.[Cl-] [Delphinidin chloride]
Delphinidin content as percentage of the starting concentration ([1]; 0 h): 100% | Delphinidin content as percentage of the starting concentration ([1]; 1 h): 8.3% | Delphinidin content as percentage of the starting concentration ([1]; 2 h): 6.5% | Delphinidin content as percentage of the starting concentration ([1]; 3 h): 5.6% | Delphinidin content as percentage of the starting concentration ([1]; 4 h): 5.1% | Achievable solubility, Delphinidin chloride [2]: 70 µg/mL
